# From ChEMBL document CHEMBL5370597, “Fungal Duel between Penicillium brasilianum and Aspergillus nomius Results in Dual Induction of Miktospiromide A and Kitrinomycin A” (J Nat Prod, 2023)
# The source made the active and inactive calls. No cut-off for these calls is given here.
# Key:
# Giardia intestinalis = experiment: Anti-protozoal activity against Giardia duodenalis 713 assessed as inhibition of protozoal growth measured after 72 hrs under anaerobic conditions; type: functional
# Candida albicans = experiment: Antifungal activity against Candida albicans ATCC 10231 assessed as fungal growth inhibition incubated for 48 hrs by bromocresol green staining based microplate reader assay; type: functional
# [1] = Cytotoxicity against mouse NS-1 cells incubated for 72 hrs by resazurin staining based microplate reader assay; type: functional
# Aspergillus nomiae [2] = experiment: Antifungal activity against Aspergillus nomius MST-FP2004 assessed as reduction in growth diameter at 20 ug by disc diffusion assay relative to control; type: functional; design: scale not given: the % may be the effect or the level left; settings: dose 20 µg
# Staphylococcus aureus = experiment: Antibacterial activity against Staphylococcus aureus ATCC 25923 assessed as bacterial growth inhibition incubated for 48 hrs by resazurin staining based microplate reader assay; type: functional
# NFF = experiment: Cytotoxicity against human NFF cells incubated for 72 hrs by resazurin staining based microplate reader assay; type: toxicity, cell-based
# Aspergillus nomiae [3] = experiment: Antifungal activity against Aspergillus nomius MST-FP2004 assessed as change in morphology at 20 ug by disc diffusion assay; type: functional, organism-based; settings: dose 20.0 µg
# Tritrichomonas foetus = experiment: Antiprotozoal activity against Tritrichomonas foetus KV-1 strain assessed as inhibition of protozoal growth measured after 72 hrs under anaerobic conditions; type: functional
# DU-145 = experiment: Cytotoxicity against human DU-145 cells incubated for 72 hrs by resazurin staining based microplate reader assay; type: functional
# Escherichia coli = experiment: Antibacterial activity against Escherichia coli ATCC 25922 assessed as bacterial growth inhibition incubated for 48 hrs by resazurin staining based microplate reader assay; type: functional
# Bacillus subtilis = experiment: Antibacterial activity against Bacillus subtilis ATCC 6633 assessed as bacterial growth inhibition incubated for 48 hrs by resazurin staining based microplate reader assay; type: functional
# Aspergillus nomiae [4] = experiment: Antifungal activity against Aspergillus nomius MST-FP2004 assessed as fungal growth rate at 20 ug by disc diffusion assay; type: functional, organism-based; settings: dose 20.0 µg
# MCF7 = experiment: Cytotoxicity against human MCF7 cells incubated for 72 hrs by resazurin staining based microplate reader assay; type: functional
# Saccharomyces cerevisiae = experiment: Antifungal activity against Saccharomyces cerevisiae ATCC 9763 assessed as fungal growth inhibition incubated for 48 hrs by bromocresol green staining based microplate reader assay; type: functional
# Penicillium brasilianum [5] = experiment: Antifungal activity against Penicillium brasilianum MST-FP1927 assessed as fungal growth rate at 20 ug by disc diffusion assay; type: functional, organism-based; settings: dose 20.0 µg
# Penicillium brasilianum [6] = experiment: Antifungal activity against Penicillium brasilianum MST-FP1927 assessed as change in morphology at 20 ug by disc diffusion assay; type: functional, organism-based; settings: dose 20.0 µg
Compound,LD99 (Giardia intestinalis) [µM],MIC (Candida albicans) [µg/mL],LD99 [1] [µM],Activity (Aspergillus nomiae [2]) [%],MIC (Staphylococcus aureus) [µg/mL],LD99 (NFF) [µM],Activity (Aspergillus nomiae [3]),LD99 (Tritrichomonas foetus) [µM],LD99 (DU-145) [µM],MIC (Escherichia coli) [µg/mL],MIC (Bacillus subtilis) [µg/mL],Activity (Aspergillus nomiae [4]),LD99 (MCF7) [µM],MIC (Saccharomyces cerevisiae) [µg/mL],Activity (Penicillium brasilianum [5]),Activity (Penicillium brasilianum [6])
COC(=O)c1oc(=O)c2c(O)c3c(O)c(C(C)=O)oc3cc2c1O,37,> 100,7.8,~7,> 100,> 100,inactive,4.8,>100,> 100,42,inactive,>100,> 100,,
CO[C@@]12[C@H](COC(N)=O)C3=C(C(=O)C(C)=C(N)C3=O)N1C[C@@H]1N[C@@H]12 [MITOMYCIN],,,0.93,,,,,,,,,,,,,
CN[C@@H]1C[C@H]2O[C@@](C)([C@@H]1OC)n1c3ccccc3c3c4c(c5c6ccccc6n2c5c31)C(=O)NC4 [STAUROSPORINE],,,,,,0.09,,1.2,3.4,,,,54,,,
C[C@@H]1[C@H](O)[C@@H](C)/C=C/C=C/C=C/C=C/C=C/C=C/C=C/[C@H](O[C@@H]2O[C@H](C)[C@@H](O)[C@H](N)[C@@H]2O)C[C@@H]2O[C@](O)(C[C@@H](O)C[C@@H](O)[C@H](O)CC[C@@H](O)C[C@@H](O)CC(=O)O[C@H]1C)C[C@H](O)[C@H]2C(=O)O [AMPHOTERICIN B],,0.09,,,,,,,,,,,,0.28,,
Cc1ncc([N+](=O)[O-])n1CCO [METRONIDAZOLE],9.1,,,,,,,,,,,,,,,
GENTAMICIN,,,,,0.38,,,,,0.81,0.38,,,,,
CCCCCCC/C=C/C1=CC(=O)[C@]2(O1)C(=O)N[C@@](C)(O)[C@H]2O,39,> 100,77,,50,> 100,,>100,39,> 100,25,,>100,> 100,inactive,inactive
COC(=O)c1oc(=O)c2c(O)c(C(=O)O)c(O)cc2c1O,>100,> 100,>100,,> 100,> 100,inactive,>100,>100,> 100,> 100,inactive,>100,> 100,,
